Experimental data taken from patent US20240307589A1, “LEPTIN RECEPTOR AFFINITY PEPTIDE AND USE THEREOF” (Dubu Biosciences, priority 2021, published 2024).
No end group written: not given here. *: point of attachment. FITC = O=C1OC2(c3ccc(O)cc3Oc3cc(O)ccc32)c2ccc(NC(=S)*)cc21

Legend:
rat lung injury site = experiment: Recruitment of endogenous MSCs to peptide-bound collagen sponge implanted into rat lung injury site (flow cytometry); type: in vivo; conditions: rat lung defect, 12 h, 24 h or 48 h after implantation, vs control groups; FIGS. 6A to 6F
Method: Rats weighing about 150 g were anesthetized, intubated and subjected to partial resection on middle lobes of right lungs in the case of positive pressure ventilation of ventilators, where lung tissues with a size of about 0.5 cm*0.5 cm*0.3 cm were resected, and the collagen sponges which had been uniformly added dropwise with the CBD-affinity peptide or the control peptides and incubated for 2 h at 37° C. in advance were implanted into rat lung defect sites, respectively. After the rats were sacrificed after 12 h, 24 h or 48 h, respectively, the implanted collagen sponges were completely separated and taken out. The collagen sponges were dissolved with a collagenase, and cells adsorbed on the collagen sponges in vivo were separated and collected. Through identification of expression of CD45, CD44, CD71 and CD90 on surfaces of the cells, proportions of the numbers of MSCs adsorbed on the collagen sponges at the implantation sites were analyzed. The proportions that the MSCs accounted for in the cells digested from the collagen sponges were detected by flow cytometry.

rat lung injury sites = experiment: Lung injury repair after implantation of peptide-bound collagen sponge (Masson's staining); type: in vivo; conditions: 35 days after implantation, vs control groups, FIG. 7
Excerpt: After a CBD-affinity peptide and control peptides were implanted into rat lung injury sites according to the above method, lung tissues were taken out 35 days later and subjected to pathological identification.

human MSCs = experiment: Binding recovery of phage to human MSCs (elution and titration); type: cell-based; conditions: vs M13KE negative control phage, FIG. 2A
Method: (§1) An HY7 phage monoclone and an M13KE negative control phage were amplified with reference to the method in Example 1 and titrated. The HY7 phage monoclone and the M13KE negative control phage were added to well plates containing human MSCs with a confluence pre-cultured to about 80%, and an unrelated human bone marrow stromal cell line HS-5 was set as a control. The HY7 phage monoclone and the M13KE negative control phage were subjected to binding and elution according to a step of screening phages to obtain an eluent of the HY7 phage binding to the target protein and an eluent of the M13KE negative control phage binding to the target protein, respectively. The eluent of the HY7 phage binding to the target protein and the eluent of the M13KE negative control phage binding to the target protein were titrated according to a phage titration method. The binding of the HY7 phage monoclone to the target molecule and the binding of the M13KE negative control phage to the target molecule were compared. […] FIG. 2A is a schematic diagram illustrating the binding recovery of an HY7 phage monoclone and an M13KE negative control phage to human MSCs, and FIG. 2B is a schematic diagram illustrating the binding recovery of an HY7 phage monoclone and an M13KE negative control phage to HS-5 cells.

[1] = system: human bone marrow stromal cell line HS-5; experiment: Binding recovery of phage to control HS-5 cells (elution and titration); type: cell-based; conditions: FIG. 2B
Method: as §1

rat MSCs = experiment: Binding of FITC-labeled peptide to rat MSCs by flow cytometry; type: cell-based; conditions: FITC-labeled peptides, vs M7, FIG. 4
Excerpt: To evaluate the species specificity of the HY7 peptide and provide a basis for subsequent animal experiments, the binding of HY7 to rat MSCs was specifically verified. Rat bone marrow cells were acquired according to a conventional method and subjected to culture and identification, and rat MSCs were obtained. The binding of an FITC-HY7 peptide and an FITC-M7 peptide to the rat MSCs was detected according to the above flow cytometry detection method.

Substance	MSCs adsorbed to the collagen sponge (proportion of MSCs in cells digested from sponge) (rat lung injury site)	repair effect at the tissue site (rat lung injury sites)	binding to surfaces of the MSCs (binding recovery) (human MSCs)	binding to the control cells HS-5 (binding recovery) [1]	binding ability to the rat MSCs (rat MSCs)
CBD-HY7: CBD (TKKTLRT) on the N-terminus of HY7 through a linker (GGGGS or GGG-K-FITC) (TKKTLRTGGGK(FITC)HGGVRLY)	can adsorb more MSCs to the collagen sponge in a short time	better repair effect	–	–	–
HGGVRLY (Leptin receptor affinity peptide) [HY7]	–	–	can specifically binds to surfaces of the MSCs	does not bind	significantly stronger than that of M7
